Test results from patent US9878982B2, “Pyridine derivatives and anti-mycobacterial use thereof” (priority 2014, dated 2018).
In brackets after ≈: the same amount, converted by molar mass. Read-outs that look alike come from different tables or passages of the source.

Legend:
[1] = system: M. tuberculosis H37R; assay: microbe, parasite or virus in culture; format: cell-based, Mycobacterium tuberculosis
[2] = system: Vero Cell; assay: Vero cell cytotoxicity (IC50); format: cell-based; conditions: African green monkey kidney cells
[3] = system: Mycobacterium tuberculosis (ATCC35801); assay: In vivo efficacy in a mice model infected with M. tuberculosis by spray (lung bacteria load); conditions: female Balb/c mice, day 35, compared with the solvent treated group
[4] = in vitro; conditions: human
[5] = system: M. tuberculosis H37Rv; assay: In vitro efficacy test using the H37Rv strain, Microplate Alamar Blue Assay (MABA) MIC; format: cell-based, Mycobacterium tuberculosis; conditions: for MIC: Mycobacterium tuberculosis, H37RV
[6] = system: Mycobacterium smegmatis strain ATCC19420; assay: In vitro efficacy test using Mycobacterium smegmatis strain ATCC19420 (MIC); format: cell-based; conditions: CA-MHB + 0.02% Tween 80, 30° C., read after 72 hours
[7] = system: Hela; assay: Hela cell cytotoxicity (CC50); conditions: human cervical cancer cells; half of the toxic concentration
[8] = aerobic, 7H9 medium, Alamar Blue

Row | SMILES | MIC ([1]; Mycobacterium tuberculosis, H37R, read-out: M. tuberculosis H37R LORA (MIC)) [µg/mL] | IC50 ([2]; Chlorocebus sabaeus, Vero) [µg/mL] | reduction of the amount of the bacteria in the lungs ([3]; 25 mg/kg by gavage once each working day for four weeks) [log] | CC50 [4] [µg/mL] | MIC ([5]; aerobic, 7H9 medium, Alamar Blue, read-out: M. tuberculosis H37Rv MABA (MIC)) [µg/mL] | MIC ([5]; wild-type H37Rv strain, two values per compound, read-out: MABA MIC vs. H37Rv) [µM] | MABA MIC vs. H37Rv ([5]; wild-type H37Rv strain, two values per compound) [µM] | reduction of the amount of the bacteria in the lungs ([3]; 15 mg/kg by gavage once each working day for four weeks) [log] | M. tuberculosis H37R LORA (MIC) [1] [µg/mL] | Vero Cell (IC50) [2] [µg/mL] | M. smegmatis ATCC19420 MIC [6] [µg/mL] | CC50_Hela [7] [µg/mL] | M. tuberculosis H37Rv MABA (MIC) [5, 8] [µg/mL]
1 | COc1nc2ccc(Br)cc2cc1[C@@H](c1ccccc1)[C@@](O)(CCN(C)C)c1cccc2ccccc12 [Bedaquiline, reference compound] | 0.2 (≈ 0.36 µM) | > 32 | 5.2 | > 64 | 0.03 | 0.06 | 0.05 | – | – | – | – | – | –
2 | CO[C@H]1/C=C/O[C@@]2(C)Oc3c(C)c(O)c4c(O)c(c(/C=N/N5CCN(C)CC5)c(O)c4c3C2=O)NC(=O)/C(C)=C\C=C\[C@H](C)[C@H](O)[C@@H](C)[C@@H](O)[C@@H](C)[C@H](OC(C)=O)[C@@H]1C [rifampicin] | – | – | – | – | – | – | – | 1.8 | – | – | – | – | –
3 | COc1ncc(C2CCCC2)cc1C(c1ccccc1)C(O)(CCN(C)C)c1cccc2ccccc12 (centres unmarked) [Compound 64] | – | – | – | – | – | – | – | – | 3.06 | >50 | 0.5 | 28.75 (≈ 58.1 µM) | 2.33
4 | COc1ncc(-c2csc(Br)c2)cc1C(c1ccccc1)C(O)(CCN(C)C)c1cccc2ccccc12 (centres unmarked) [Compound 275] | – | – | – | – | – | – | – | – | 0.67 | >32 | 0.125 | >64 | 0.41
5 | COc1ncc(C2CCCCC2)cc1C(c1ccccc1)C(O)(CCN(C)C)c1cccc2ccccc12 (centres unmarked) [Compound 104, 1-(5-cyclohexyl-2-methoxypyridin-3-yl)-4-(dimethylamino)-2-(naphthalen-1-yl)-1-phenylbutan-2-ol] | – | – | – | – | – | – | – | – | 1.52 | >50 | 0.5 | 19.18 (≈ 37.7 µM) | 1.45
